This note sets out measurements from PMC6384650, “Phenolic Compounds of Catalpa speciosa, Taxus cuspidata, and Magnolia acuminata have Antioxidant and Anticancer Activity” (Molecules, 2019).

Experiment [1] has as its system MCF-7 cells (breast adenocarcinoma). Description: MTT antiproliferative assay, MCF-7. Type of experiment: cell-based. The following applies: 2 days incubation; for IC50: Homo sapiens, MCF7, 48 h, read-out: In vitro antiproliferative activity IC50, MCF-7. As to the method: (§1) Fresh bark (0.25 g) was dried at 35 °C until a constant weight was obtained. The samples were ground and then dissolved in 3 mL methanol (99%) for 1 h in the dark at 25 °C. Bark solutions were centrifuged for 5 min at 10,000 rpm (7000 × g) and the supernatant was obtained (~2.7 mL). The samples were passed through a 0.45 μm polytetrafluroethylene (PTFE) nylon filter and then stored at −80 °C. Analytical grade chemicals (Sigma Aldrich, Germany) were used in the bioassays. The cancer cell lines, including cervical adenocarcinoma (HeLa), breast adenocarcinoma (MCF-7), T-cell lymphoblast like (Jurkat), urinary bladder carcinoma (T24), and colon adenocarcinoma (HT-29), were obtained from the American Type Culture Collection (ATCC).
(§2) The antiproliferative activity of bark extracts was examined in different cancer cells lines (HeLa, MCF-7, Jurkat, HT-29, and T24) and in normal cells (HEK-293) by using a modified 3-(4,5-dimethylthiazol-2-yl)-2,5-diphenyltetrazolium bromide (MTT) method. The cells were grown in 75 cm^2 flasks in MEM supplemented with 10% FBS, 17.8 mM NaHCO3, 0.1 mM non-essential amino acids, and 1 mM sodium pyruvate. They were seeded into 96-well plates at a density of 4 × 10^−4 per well, left to stand in 270 µL of medium, and incubated in an atmosphere of 37 °C and 5% CO2. Sterilin-filtered leaf extracts were added to the culture media in microtiter plates. Five doses of bark extracts were used at final concentrations of 50, 100, 200, 300, and 400 µg/mL in culture medium. Untreated cells were considered used as negative controls and vinblastine sulfate and taxol treatment were used as the positive controls. After incubation of the culture medium for 2 days at 37 °C and 5% CO2, phosphate buffer saline (PBS) washes were performed to remove extract traces and the medium supplied was 12 mM MTT dissolved in PBS. Subsequently, 0.04 N HCl dissolved in isopropanol was mixed in each well, left to stand for 40 min, and the absorbance at 570 nm was determined by using a microplate reader (Thermo Fisher Scientific, Waltham, Massachusetts, USA). The percentage inhibition of antiproliferation activity was calculated in triplicate:
(§3) % Inhibition = (Abs.570 nm control—Abs.570 nm sample)/Abs.570 nm control × 100. Subsequently, IC50 values were obtained by plotting the percentage of cell viability against the extract concentration and expressed in µg/mL.
In general terms: Formazan colour is commonly taken as a measure of viable cells.

In experiment [2] the test system is Jurkat cells (T-cell lymphoblast like). The experiment is described as follows: MTT antiproliferative assay, Jurkat. Type of experiment: cell-based. The following applies: 2 days incubation; for IC50: Homo sapiens, Jurkat, 48 h, read-out: In vitro antiproliferative activity IC50, Jurkat. As to the method:
as §1, §2, §3

In experiment [3] the test system is T24 cells (urinary bladder carcinoma). Description: MTT antiproliferative assay, T24. The class given is cell-based. The settings on record: 2 days incubation; for IC50: Homo sapiens, T-24, 48 h, read-out: In vitro antiproliferative activity IC50, T24. As to the method: as §1, §2, §3
For experiment [4], the system named is HeLa cells (cervical adenocarcinoma). Description: MTT antiproliferative assay, HeLa. Type of experiment: cell-based. The following applies: 2 days incubation; for IC50: Homo sapiens, HeLa, 48 h, read-out: In vitro antiproliferative activity IC50, HeLa. As to the method:
as §1, §2, §3

Another experiment concerns HEK-293 cells. Description: MTT antiproliferative assay, normal HEK-293 cells. Type of experiment: cell-based. The settings on record: 2 days incubation; for IC50: Homo sapiens, HEK293, 48 h, read-out: In vitro antiproliferative activity IC50, HEK-293. As to the method: as §2, §3
Experiment [5] relates to MCF-7, HeLa, Jurkat, T24, and HT-29 cells. Description: MTT antiproliferative assay, cancer cell line panel. The class given is cell-based. The settings on record: most cancer cells. As to the method: The samples were ground and then dissolved in 3 mL methanol (99%) for 1 h in the dark at 25 °C. Bark solutions were centrifuged for 5 min at 10,000 rpm (7000 × g) and the supernatant was obtained (~2.7 mL). The samples were passed through a 0.45 μm polytetrafluroethylene (PTFE) nylon filter and then stored at −80 °C. Analytical grade chemicals (Sigma Aldrich, Germany) were used in the bioassays. The cancer cell lines, including cervical adenocarcinoma (HeLa), breast adenocarcinoma (MCF-7), T-cell lymphoblast like (Jurkat), urinary bladder carcinoma (T24), and colon adenocarcinoma (HT-29), were obtained from the American Type Culture Collection (ATCC). […] The cells were grown in 75 cm^2 flasks in MEM supplemented with 10% FBS, 17.8 mM NaHCO3, 0.1 mM non-essential amino acids, and 1 mM sodium pyruvate. […] Sterilin-filtered leaf extracts were added to the culture media in microtiter plates. […] Untreated cells were considered used as negative controls and vinblastine sulfate and taxol treatment were used as the positive controls. After incubation of the culture medium for 2 days at 37 °C and 5% CO2, phosphate buffer saline (PBS) washes were performed to remove extract traces and the medium supplied was 12 mM MTT dissolved in PBS. Subsequently, 0.04 N HCl dissolved in isopropanol was mixed in each well, left to stand for 40 min, and the absorbance at 570 nm was determined by using a microplate reader (Thermo Fisher Scientific, Waltham, Massachusetts, USA). The percentage inhibition of antiproliferation activity was calculated in triplicate: % Inhibition = (Abs.570 nm control—Abs.570 nm sample)/Abs.570 nm control × 100. Subsequently, IC50 values were obtained by plotting the percentage of cell viability against the extract concentration and expressed in µg/mL.

Experiment [6] deals with HT-29 cells (colon adenocarcinoma). The experiment is described as follows: MTT antiproliferative assay, HT-29. Type of experiment: cell-based. The following applies: 2 days incubation; for IC50: Homo sapiens, HT-29, 48 h, read-out: In vitro antiproliferative activity IC50, HT-29. As to the method:
as §1, §2, §3

Experiment [7] in a line: β-carotene-linoleic acid assay. The settings on record: absorbance 470 nm. As to the method: (§4) The DPPH and β-carotene-linoleic acid assays were used in the Faculty of Food and Agricultural Sciences, King Saud University to determine the antioxidant activities of bark extract. For the DPPH assay, the samples were incubated for 30 min and the absorbance of the samples at 517 nm was measured. In the β-carotene-linoleic acid assay, the absorbance of the samples at 470 nm was measured. […] A standard antioxidant (butylated hydroxytoluene, BHT) was used as a positive control and the inhibition by the concentration of each sample was compared with that of the BHT and blank. The antioxidant activities were repeated twice in duplicates.

A short description of experiment [8]: DPPH free radical scavenging assay. The following applies: 30 min incubation, absorbance 517 nm. As to the method: as §4
The test system of the next experiment is cancer cells. Description: Apoptotic cell population by flow cytometry (Annexin V). Type of experiment: cell-based. The following applies: treatment at IC50, 24/48 h, versus untreated control. As to the method:
Flow cytometry (FAC Scan, Becton Dickinson, Iowa, USA) was used to measure the apoptotic cell population. […] The cells were detached by using trypsin (0.25%) in Hank’s balanced salt solution (Thermo Fisher Scientific, Berlin, Germany). For staining the cells, the Annexin V apoptosis detection kit (Sigma, St. Louis, MO, USA) was used. Briefly, the cells were incubated in the dark at 37 °C for 15 min and washed with cold PBS, and the apoptotic populations were shown by the flow cytometer in quadrants: Lower left (viable cells), upper left (necrotic cells), lower right (early apoptotic cells), and upper right (late apoptotic cells).

Converted amounts (≈) assume the structure as drawn. Counter-ions that a name gives are not always drawn. Where only a bound is given, the exact number is not on record here.

The term IC50 denotes the concentration at which inhibition is half-maximal.

For the compound `COc1cc(/C=C/C(=O)O)ccc1O` [Ferulic acid], in experiment [1], the “In vitro antiproliferative activity IC50, MCF-7” value is 43.85 ± 1.3 µg/mL. Also, in [2], the “In vitro antiproliferative activity IC50, Jurkat” value was determined as 39.11 ± 2.3 µg/mL. Further, the “In vitro antiproliferative activity IC50, T24” value in experiment [3] turned out to be 227.26 ± 5.1 µg/mL. In addition, in experiment [4], the “In vitro antiproliferative activity IC50, HeLa” value amounted to 51.73 ± 3.5 µg/mL. In addition, the “In vitro antiproliferative activity IC50, HEK-293” value with HEK-293 cells is listed as “˃400 µg/mL”. Moreover, the “Antiproliferative activity against cancer cells (in words)” value (from here on “Antiproliferative activity … (in words)”) in experiment [5] is reported as “notable antiproliferative activity against most cancer cells”. Moreover, in experiment [6], the “In vitro antiproliferative activity IC50, HT-29” value stood at 126.26 ± 4.4 µg/mL.
With `O=C(O)c1ccc(O)c(O)c1` [Protocatechuic acid, 3,4-dihydroxybenzoic acid], the IC50 in [1] is 19 ± 2.1 µg/mL (≈ 123 µM); in experiment [2], 47.4 ± 2.1 µg/mL (≈ 307 µM); in [3], 176 ± 2.1 µg/mL (≈ 1140 µM); in experiment [4], 39.1 ± 2.3 µg/mL (≈ 254 µM); with HEK-293 cells it was more than 400 µg/mL; in experiment [6], 95.3 ± 3.3 µg/mL (≈ 619 µM). The “Antiproliferative activity … (in words)” value in experiment [5] is reported as “notable antiproliferative activity against most cancer cells”.
`CC[C@]1(O)C[C@@H]2CN(CCc3c([nH]c4ccccc34)[C@@](C(=O)OC)(c3cc4c(cc3OC)N(C)[C@H]3[C@@](O)(C(=O)OC)[C@H](OC(C)=O)[C@]5(CC)C=CCN6CC[C@]43[C@@H]65)C2)C1` [Vinblastine sulfate]: the IC50 in [2] turned out to be 0.1 ± 0.09 µg/mL; in [3], 65.7 ± 2.1 µg/mL; in [4], 2.7 ± 0.06 µg/mL; with HEK-293 cells, 50.1 ± 2.3 µg/mL; in experiment [6], 21 ± 0.1 µg/mL.
For `CC[C@]1(O)C[C@H]2CN(CCc3c([nH]c4ccccc34)[C@@](C(=O)OC)(c3cc4c(cc3OC)N(C=O)[C@H]3[C@@](O)(C(=O)OC)[C@H](OC(C)=O)[C@]5(CC)C=CCN6CC[C@]43[C@@H]65)C2)C1` [Vincristine], the IC50 is 4.63 ± 1.8 µg/mL (≈ 5.61 µM) in experiment [1]; 0.4 ± 0.05 µg/mL (≈ 0.485 µM) in experiment [2]; 89.8 ± 2.5 µg/mL (≈ 109 µM) in experiment [3]; 8.5 ± 0.1 µg/mL (≈ 10.3 µM) in [4]; 78.3 ± 1.6 µg/mL (≈ 94.9 µM) in the experiment with HEK-293 cells; 47.3 ± 0.2 µg/mL (≈ 57.3 µM) in experiment [6].
Take `CC(=O)O[C@H]1C(=O)[C@@]2(C)[C@H]([C@H](OC(=O)c3ccccc3)[C@]3(O)C[C@H](OC(=O)[C@H](O)[C@@H](NC(=O)c4ccccc4)c4ccccc4)C(C)=C1C3(C)C)[C@]1(OC(C)=O)CO[C@@H]1C[C@@H]2O` [Taxol]: the IC50 in [1] stood at 0.09 ± 0.009 µg/mL (≈ 0.105 µM).
Turning to `Cc1cc(C(C)(C)C)c(O)c(C(C)(C)C)c1` [BHT, butylated hydroxytoluene], the “β-Carotene-Linoleic Acid Assay (IC50)” value in experiment [7] is on record as 3.2 ± 0.1c µg mL^−1. Further, in experiment [8], the “DPPH Free Radical Scavenging Activity (IC50)” value was 2.9 ± 0.1c µg mL^−1.
Consider `O.Oc1cc(O)c2c(c1)O[C@H](c1ccc(O)c(O)c1)[C@@H](O)C2` [Catechin], for which the “In vitro antiproliferative activity IC50, MCF-7” value in experiment [1] is 17.64 ± 1.8 µg/mL. Besides, the “In vitro antiproliferative activity IC50, Jurkat” value in experiment [2] amounted to 38.16 ± 0.7 µg/mL. Also, the “In vitro antiproliferative activity IC50, T24” value in [3] stood at 183.28 ± 4.3 µg/mL. The “In vitro antiproliferative activity IC50, HeLa” value in [4] was determined as 36.48 ± 1.2 µg/mL. Also, the “In vitro antiproliferative activity IC50, HEK-293” value with HEK-293 cells is reported as “˃400 µg/mL”. In [5], the “Antiproliferative activity … (in words)” value is reported as “notable antiproliferative activity against most cancer cells”. Further, the “In vitro antiproliferative activity IC50, HT-29” value in experiment [6] is 96.16 ± 1.5 µg/mL. Moreover, the “Accumulation of necrotic, early and late apoptotic cells” value with cancer cells is “high accumulation of early and late apoptotic cells”.
For the compound Hydroxycaffeic acid, the “In vitro antiproliferative activity IC50, MCF-7” value in experiment [1] is reported as 58.11 ± 0.9 µg/mL. In addition, in experiment [2], the “In vitro antiproliferative activity IC50, Jurkat” value is given as 63.09 ± 1.4 µg/mL. Moreover, the “In vitro antiproliferative activity IC50, T24” value in experiment [3] is 176.12 ± 3.6 µg/mL. Also, the “In vitro antiproliferative activity IC50, HeLa” value in [4] is 65.31 ± 2.4 µg/mL. Besides, the “In vitro antiproliferative activity IC50, HEK-293” value with HEK-293 cells is recorded as “˃400 µg/mL”. Further, the “Antiproliferative activity … (in words)” value in [5] is “notable antiproliferative activity against most cancer cells”. Moreover, the “In vitro antiproliferative activity IC50, HT-29” value in experiment [6] is given as 113.15 ± 2.9 µg/mL.
